This is an account of results in publication PMC12736951, “Design, Synthesis, and Biological Evaluation of 6″-Modified Apramycin Derivatives to Overcome Aminoglycoside Resistance” (Pharmaceutics, 2025).

Assay [1] has as its system E. coli ATCC 25922. Description: MIC, broth microdilution. Format: cell-based, Escherichia coli. As to conditions: Escherichia coli, ATCC25922, Table 1, read-out: MIC. The source says:
(§1) The microbial strains used in this study were obtained from the collection of the Gause Institute of New Antibiotics. The control strains included in the analysis were S. aureus ATCC 29213, E. coli ATCC 25922, P. aeruginosa ATCC 27853, M. smegmatis ATCC 607. Clinical isolates E. coli MAR17-1350, K. pneumoniae APEX-5, K. pneumoniae MAR14-3395, and K. pneumoniae MAR18-1752 with multidrug resistance, including resistance to aminoglycosides were kindly provided by the Research Institute of Antimicrobial Chemotherapy (RIAC) of the Smolensk State Medical University, Smolensk. The microbial cultures were stored at −75 °C in trypticase soy broth (Becton, Dickinson, France) containing 10–15% glycerol. Storage was carried out in accordance with CLSI guidelines. Prior to experimentation, the bacterial strains were revived from cryopreservation by inoculating them onto trypticase soy agar (Becton, Dickinson, France) and incubating at (36 ± 1) °C for 16–24 h. Individual morphologically homogeneous colonies were then suspended in sterile physiological saline, and the turbidity of the suspension was adjusted to 0.5 McFarland units using a DEN-1 spectrophotometer (Biosan, Riga, Latvia), which corresponds to a concentration of 1.5 × 10^8 CFU/mL.
(§2) The samples were dissolved in sterile distilled water, depending on the physicochemical properties of the compounds under investigation, to a concentration of 10,000 µg/mL. Working solutions were then prepared by serial dilution, resulting in concentrations ranging from 64 µg/mL to 0.125 µg/mL.
(§3) Activity was evaluated by determining the minimum inhibitory concentration (MIC) values using the microdilution method in Mueller–Hinton Broth (Beckton and Dickinson, Le Pont-de-Claix, France), in accordance with the standard procedure for assessing the antimicrobial susceptibility of microorganisms.
(§4) The analysis was conducted in 96-well microtiter plates (Medpolymer, Saint Petersburg, Russia). The bacterial inoculum was introduced within 15 min of preparation. MIC values were determined after incubation for 15–18 h at (36 ± 1) °C. Microbial growth in the presence of the tested compounds was compared to the growth control (without exposure to the test samples). The MIC was defined as the lowest concentration at which visible microbial growth was inhibited.
(§5) To ensure the accuracy of the results, the control antibiotics kanamycin A, gentamycin, and tobramycin (Abcr GmbH, Karlsruhe, Germany) were included, along with standard reference strains: E. coli ATCC 25922. The MIC values for kanamycin A were determined as follows: E. coli ATCC 25922—1–4 µg/mL [22]. For gentamycin, the MIC values were E. coli ATCC 25922–0.25–1 µg/mL [23]. For tobramycin, the MIC values were E. coli ATCC 25922–0.25–1 µg/mL [23]. The MIC values of the reference strains were required to fall within the acceptable ranges specified in [24], provided that standard assay conditions were maintained.

For assay [2], the system named is E. coli JW5503 SmR. Description: MIC against transformant carrying ANT(3″). The conditions noted are these: Escherichia coli, JW5503SMR. In kind it is cell-based. The protocol: (§6) The determination of the MIC values was performed on five strains from the working collection of MSU. E. coli JW5503 [25], which lacked a kanamycin resistance cassette that had been removed as per the method outlined in [26], and a strain derived from this strain through in vitro selection with kanamycin. […] Strains containing AG-modifying enzymes were obtained through the transformation of E. coli JW5503 with plasmids that carried cassettes of resistance, namely pCRISPomyces-2–AAC(3)-IV (Addgene #61737), pdualrep2–APH(3′)-II [27] and pt67–ANT(3″). The MIC determination was performed as described for JW5503 in [19].

Assay [3] relates to E. coli JW5503 kanS. In words: MIC against E. coli JW5503 parent strain. In kind it is cell-based. The conditions noted are these: Escherichia coli, JW5503KANS. The protocol:
as §6

Assay [4] relates to E. coli JW5503 EF-G P610T. In words: MIC against aminoglycoside-resistant EF-G mutant. As to conditions: Escherichia coli. Format: cell-based. The protocol:
as §6

The test system of assay [5] is E. coli S30 Extract System, firefly luciferase synthesis. Description: Cell-free translation inhibition assay. Format: biochemical. The conditions noted are these: for inhibition of protein synthesis in vitro (firefly luciferase): 0.4 μM, E. coli S30 extract; for inhibitory effect on translation relative to apramycin (1): equivalent concentrations (0.4 μM). As for the experimental part:
The inhibitory effects of the compounds under investigation on in vitro firefly luciferase synthesis were evaluated using the E. coli S30 Extract System for Linear Templates (Promega, Madison, WI, USA), as previously described. The working concentration for all tested compounds in the in vitro translation reaction was 0.4 μM. As all compounds were diluted in water, it was used as the negative control.

The subject of assay [6] is M. smegmatis ATCC 607. Description: MIC, broth microdilution. Format: cell-based, Mycobacterium smegmatis. As to conditions: Mycolicibacterium smegmatis, ATCC607, Table 1.
Text: as §1, §2, §3, §4, §5
A general note: Broth dilution looks for growth in wells or tubes with falling amounts of substance.

Assay [7] has as its system E. coli JW5503 ApmR. Description: MIC against transformant carrying AAC(3)-IV. Format: cell-based. As to conditions: Escherichia coli, JW5503APMR. As for the experimental part: as §6
The test system of assay [8] is E. coli JW5503 KanR. Description: MIC against transformant carrying APH(3′)-II. Format: cell-based. The conditions noted are these: Escherichia coli, JW5503KANR. The protocol: as §6

Broadly, the MIC is the least concentration at which growth counts as inhibited. Regarding `CNC1C(OC2OC(CNCCN)C(N)C(O)C2O)OC2CC(N)C(OC3C(N)CC(N)C(O)C3O)OC2C1O` (stereo not drawn) [Compound 5a, 6″-((2-Aminoethyl-1)-amino)-6″-deoxyapramycin acetate], the MIC in assay [1] was 2 mg/L; in assay [2], 32 mg/L; in assay [3], 16 mg/L; in assay [4], 32 mg/L; in assay [6], 0.25 mg/L; in assay [7], > 256 mg/L. This compound also had an MIC in assay [8] of 16 mg/L. Also, the “inhibition of protein synthesis in vitro (firefly luciferase)” value (from here on “inhibition of protein synthesis in vitro”) in assay [5] was “inhibited protein synthesis in vitro”. Also, the “inhibitory effect on translation relative to apramycin (1)” value in assay [5] is “approximately one order of magnitude weaker”.
Regarding `CNC1C(OC2OC(CNCCCN)C(N)C(O)C2O)OC2CC(N)C(OC3C(N)CC(N)C(O)C3O)OC2C1O` (stereo not drawn) [Compound 5b, 6″-((3-Aminopropyl-1)-amino)-6″-deoxyapramycin acetate], the MIC is 2 mg/L in assay [1]; 32 mg/L in assay [2]; 32 mg/L in assay [3]; 64 mg/L in assay [4]; 0.25 mg/L in assay [6]; > 256 mg/L in assay [7]. Moreover, 32 mg/L was the least that counted as inhibitory in assay [8] (MIC). Moreover, in assay [5], the “inhibition of protein synthesis in vitro” value is “inhibited protein synthesis in vitro”. The “inhibitory effect on translation relative to apramycin (1)” value in assay [5] was “approximately one order of magnitude weaker”.
For `CNC1C(OC2OC(CNCCNC(=N)N)C(N)C(O)C2O)OC2CC(N)C(OC3C(N)CC(N)C(O)C3O)OC2C1O` (stereo not drawn) [Compound 8a, 6″-((2-Guanidinoethyl-1)-amino)-6″-deoxyapramycin acetate], the MIC is 1 mg/L in assay [1]; 16 mg/L in assay [2]; 8 mg/L in assay [3]; 32 mg/L in assay [4]; 0.125 mg/L in assay [6]; > 256 mg/L in assay [7]. In assay [8], this compound displayed a minimum inhibitory concentration (MIC) of 8 mg/L. For the same compound, the “inhibition of protein synthesis in vitro” value in assay [5] is “inhibited protein synthesis in vitro”. For the same compound, the “inhibitory effect on translation relative to apramycin (1)” value in assay [5] is reported as “approximately one order of magnitude weaker”.
On to `CNC1C(OC2OC(CNCCCNC(=N)N)C(N)C(O)C2O)OC2CC(N)C(OC3C(N)CC(N)C(O)C3O)OC2C1O` (stereo not drawn) [Compound 8b, 6″-((3-Guanidinopropyl-1)-amino)-6″-deoxyapramycin acetate], for which the MIC was 1 mg/L in assay [1]; 32 mg/L in assay [2]; 16 mg/L in assay [3]; 64 mg/L in assay [4]; 0.125 mg/L in assay [6]; > 256 mg/L in assay [7]. The same compound had an MIC in assay [8] of 16 mg/L. Moreover, the “inhibition of protein synthesis in vitro” value in assay [5] is “inhibited protein synthesis in vitro”. The “inhibitory effect on translation relative to apramycin (1)” value in assay [5] is reported as “approximately one order of magnitude weaker”.
